According to PubChem BioAssay (NCI):
Where “and” joins values, the source holds several entries; their conditions need not be identical. Equal values may be shown once.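 The compound was tested at five concentrations on cells cultured in 96-well plates, with a 48-hour exposure period. GI50: concentration for 50% inhibition of growth. TGI: concentration producing complete growth inhibition.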

What was measured:
Test in all cases: growth of human tumour cells (NCI), 48 h
[1] = system: OVCAR-4 ovarian
[2] = system: SF-268 CNS
[3] = system: NCI-H460 lung
[4] = system: SK-MEL-5 melanoma
[5] = system: SNB-75 CNS
[6] = system: OVCAR-3 ovarian
[7] = system: SR leukemia
[8] = system: T-47D breast

SMILES | GI50 [1] [µM] | TGI [1] | GI50 [2] [µM] | TGI [2] | GI50 [3] | TGI [3] | GI50 [4] [µM] | TGI [4] [µM] | GI50 [5] [µM] | TGI [5] [µM] | GI50 [6] [µM] | TGI [6] | GI50 [7] [µM] | TGI [7] [µM] | GI50 [8] [µM] | TGI [8] [µM]
COc1ccc(C2SCC(=O)N2NC(=O)C(O)c2ccccc2)cc1 (stereo not given) | > 100 | > 100 µM | > 100 | > 100 µM | > 100 µM | > 100 µM | > 100 | > 100 | 80.9 | > 100 | > 100 | > 100 µM | > 100 | > 100 | > 100 | > 100
Cc1ccc(N(/C=C/C(=O)C(F)(F)F)CC(=O)c2ccc(Cl)c(Cl)c2)cc1 | – | – | 12.5 | 25 µM | 8.73 µM | 21 µM | 5.64 | 19.6 | 1.67 | 16.4 | 3.19 | 16.3 µM | 2.97 | 12.6 | 12.2 | 25.8
c1ccc2c(-c3cnn4cc(-c5ccc(N6CCNCC6)cc5)cnc34)ccnc2c1 | 1.5 | 3.43 µM | 1.43 | 2.8 µM | 0.216 µM | 0.525 µM | 1.26 | 2.52 | 0.441 | 2.12 | 1.41 | 2.72 µM | 0.153 | 0.562 | 1.42 | 3.2
Clc1ccc(N/N=C(\c2ccccc2)c2ccccn2)nc1 | 0.0201 | > 100 µM and 56.2 µM | 0.324 | 21.1 µM and 4.08 µM | 0.29 µM and 0.171 µM | > 39.9 µM and 13.6 µM | 0.32 | – | 0.614 | – | 0.0379 | 11.2 µM and > 28.6 µM | 0.0769 | 3.5 | < 0.0163 | > 100
CCOc1ccc2c(c1)C(=O)c1c-2n(CCCN)c(=O)c2cc([N+](=O)[O-])ccc12 | 0.527 | 2.18 µM | 0.0115 | 1.06 µM | – | – | 0.0771 | 0.417 | – | – | 0.448 | 1.75 µM | < 0.01 | 2.17 | – | –
OCc1ncc(-c2ccccc2)s1 | > 100 | > 100 µM | > 100 | > 100 µM | > 100 µM | > 100 µM | > 100 | > 100 | > 100 | > 100 | > 100 | > 100 µM | > 100 | > 100 | > 100 | > 100
CN(C)CCCN1c2ccc(O)cc2Sc2ccc(Cl)cc21 | – | 25.5 µM | – | 21 µM | – | 14.5 µM | – | 28.2 | – | 21 | – | 24.5 µM | – | 15.8 | – | 38.7
CCOC(=O)Nc1ccc(C(=O)/C=C/c2ccccc2)cc1 | 43.8 | > 100 µM | 23.8 | 69 µM | 28.9 µM | > 100 µM | 27.1 | > 100 | 31.6 | > 100 | 18.9 | 75.3 µM | 3.68 | > 100 | 21.6 | > 100
CCOC(=O)C(O)Cc1cnc2ccccc2n1 (stereo not given) | – | > 100 µM | – | > 100 µM | – | > 100 µM | – | > 100 | – | > 100 | – | > 100 µM | – | > 100 | – | > 100
N=C1N=C(N)S/C1=C\c1ccc2ncccc2c1 | > 25 | > 25 µM | > 25 | > 25 µM | > 25 µM | > 25 µM | > 25 | > 25 | > 16.3 | > 25 | > 25 | > 25 µM | > 25 | > 25 | > 25 | > 25
COC(=O)c1ccc(NC(N)=NCC(C)(C)COc2ccc(C(F)(F)F)cc2)nc1 | – | – | – | – | 1.67 µM | 3.36 µM | – | – | 1.57 | 3.27 | 1.64 | 3.17 µM | – | – | 1.37 | 3.21
COc1ccc(C2CC(c3cccc(OC)c3)=NN2C(=O)c2cc(OC)c(OC)c(OC)c2)cc1 (stereo not given) | 10.8 | > 100 µM | 4.09 | > 100 µM | 1.75 µM | > 100 µM | 0.534 | > 40.4 | 0.624 | > 100 | – | – | 0.359 | > 100 | 3.02 | > 100
OCC#CCCCCOCC#Cc1ccccc1C#CCOCCCCC#CCO | 14.8 | 53.9 µM | 37.4 | > 100 µM | 31.3 µM | > 100 µM | 15.1 | 30.5 | 20.6 | 66.2 | 18.7 | 45.7 µM | 43.6 | > 100 | – | –
COC(=O)[C@@H]1[C@H](O)[C@H](C)[C@H](O)[C@H](C)/C=C\C=C(C)C(=O)Nc2c(C)c(OC(C)=O)c3c(c2O)C(=O)C(C)=C2OCOC(=C23)C(C)=C[C@@](C)(O)[C@H](O)[C@@H](C)[C@H]1OC(C)=O | – | > 100 µM | – | > 100 µM | – | – | – | > 100 | – | > 100 | – | – | – | > 100 | – | –
CSC(=NC#N)S/C=C/C(=O)c1cccc2ccccc12 | 47.9 | > 100 µM | 36.6 | > 100 µM | 37.8 µM | > 100 µM | 23.1 | 55.4 | – | – | 18 | 48.2 µM | 4.71 | > 100 | 8.59 | > 100
COc1ccccc1Nc1nc2ccccc2c2occc12 | 4.13 | 19.3 µM | 12.3 | > 50 µM | 8.09 µM | 18 µM | 12.2 | 27.7 | – | – | 20.2 | > 50 µM | 9.33 | 20.3 | 27.5 | > 50
Cc1ccc(S(=O)(=O)N[C@@H](Cc2ccccc2)C(=O)CCl)cc1 | 16.6 | 42.6 µM | – | 43.6 µM | 21.8 µM | > 100 µM | – | 28.3 | 16.7 | 35.8 | 9.5 | 24.2 µM | – | – | 21.4 | > 100
